From US7378387B2, “Method of suppressing immune response by reducing intracellular content of glutathione in macrophages and monocytes” (Ajinomoto Co., Inc., priority 1997, dated 2008)

How the values were obtained:
IL-12 = IL-12 production by MΦ induced by intraperitoneal injection of substances (Example 7); type: in vivo, mouse
Procedure: The amount of IL-12 was determined through bioassay using cells of human T cell strain 2D6 (J. Leukocyte Biology, vol. 61, p. 346, 1997).
2D6 cells which had been incubated in an RPMI 1640 medium containing 500 pg/ml of recombinant human IL-12, 50 μM of 2-mercaptoethanol and 10% FCS (fetal calf serum) were moved to a tube, and centrifugally washed three times with the above-mentioned medium without IL-12 and cell density was adjusted to 1×10^5/ml. The cell suspension was added in an amount of 100 μl each to a 96-well flat bottom plate containing a sample serially diluted in advance with an RPMI 1640 medium containing 50 μM of 2-mercaptoethanol and 10% FCS in an amount of 100 μl each. Subsequently, the mixture was charged into a 5% […] incubator of 37° C., and incubated for 48 hours. For final 6 hours, ^3H-TdR was pulsed (a substance adjusted to 370 kBq/ml in an RPMI 1640 medium containing 50 μM of 2-mercaptoethanol and 10% FCS was added in an amount of 50 μl each). The cells a harvested, and the radioactivity was measured using a β counter (Matrix 96, supplied by Packard).
It was examined whether there is a difference in the IL-12 production between LNT-induced MΦ and LPS-induced MΦ. […] Next, the same analysis was conducted using MΦ induced by intraperitoneally injecting substances for changing the GSH content in cells.

IL-6 [1] = assay: IL-6 in culture supernatant of macrophage-like cells from rheumatoid arthritis patients (Example 17); type: cell-based, human; settings: added at 2 mM
Procedure: (§1) A stimulator was added to 1×10^6 MΦ, and the incubation was conducted at 37° C. for 2 days in a CO2 incubator. After centrifugation, the culture supernatant was collected.
(§2) The amount of IL-6 was determined using IL-6 dependent mouse hybridoma MH60 cells (J. Eur. Immunol., vol. 18, p. 951, 1988). One hundred microliters of the culture supernatant were added to 100 μl of the MH60 cell suspension adjusted to 1×10^5 cells/ml in a 10% FCS-containing RPMI medium, and the mixed solution was incubated at 37° C. for 2 days in a CO2 incubator. Subsequently, 10 μl of MTT (supplied by Sigma Co.) solution adjusted to a concentration of 5 mg/ml in the same medium were added thereto, and the reaction was conducted at 37° C. for 5 hours. After the completion of the reaction, the centrifugation was conducted. The supernatant (160 μl) was removed, and 100 μl of a mixture of hydrochloric acid and propanol were added to the residue. The suspension was conducted using a pipetman to dissolve the cells. Immediately after the dissolution, an absorbance of 570 nm was measured with an immunometer (supplied by Bio-Rad).
By the same manner as in Example 3, macrophage-like cells were collected from tissues of rheumatoid arthritis patients, and were then suspended and adjusted in a phenol red-free RPMI 1640 culture medium supplemented with 10% fetal calf serum to 3×10^6 cells/ml. […]

IL-6 [2] = assay: IL-6 in macrophage culture supernatant, advanced tumor-bearing mice (Example 4); type: in vivo, CDF1 mice; settings: oral 1 mg/0.5 ml/h for 10 days, COLON 26 mice; control mice 5,200 pg/ml
Procedure: as §1, §2
The COLON 26 transplantable tumor was implanted subcutaneously in the back portion of CDF1 mice at a density of 5×10^5 cells/mouse. […] Glutathione ethyl ester was orally administered to the mice every day in a dosage of 1 mg/0.5 ml/h. This oral administration was continued for 10 days. […]

PGE2 = PGE2 in macrophage culture supernatant, advanced tumor-bearing mice (Example 4); type: in vivo, CDF1 mice; settings: oral 1 mg/0.5 ml/h for 10 days, COLON 26 mice; control mice 32 ng/ml
Procedure: After the completion of the above-mentioned incubation, the culture supernatant was recovered. The amount of IL-6 was measured by the proliferation assay using an IL-6-dependent cell strain, MH60, the amount of PGE2 was measured using an ELISA-kit, and the amount of NO was measured using a Griess-Romijn reagent. These measurements were conducted by a method which those skilled in the art usually employ.
The COLON 26 transplantable tumor was implanted subcutaneously in the back portion of CDF1 mice at a density of 5×10^5 cells/mouse. […] Glutathione ethyl ester was orally administered to the mice every day in a dosage of 1 mg/0.5 ml/h. This oral administration was continued for 10 days. The peritoneal cells were collected from the mice in the same manner as in Example 3. Peritoneal macrophages were collected, and suspended in a phenol red-free RPMI 1640 medium containing 10% fetal calf serum to a density 3×10^5 cells/ml. The suspension was charged into a Lab-Tek Chamber Slide (#136439, supplied by Nunc) in an amount of 100 μl, and the incubation was conducted in 5% CO2 at 37° C. for 3 hours. After the nonadherent cells were removed, 200 μl of above-mentioned medium free from serum were added thereto, and 10 μM of monochlorobimane were then added thereto. […]

IL-6 [3] = assay: IL-6 in culture supernatant of macrophages of NOD mice (Example 22); type: in vivo; settings: oral 1 mg/0.5 ml/h/day on alternate days, five times, age 4 weeks; control group 3800 pg/ml
Procedure: as §2
Through a probe, glutathione ethyl ester was orally given at 1 mg/0.5 ml/h/day to the NOD mice of age 4 weeks on alternate days, in total five times. By the same method as in Example 3, intraperitoneal cells were collected from the mice to sample intraperitoneal macrophages, which were then suspended and adjusted in a phenol red-free RPMI 1640 culture medium supplemented with 10% fetal calf serum to 3×10^6 cells/ml. […]

[4] = tested on: COLON 26 transplantable tumor; assay: Survival of COLON 26 advanced tumor-bearing cachectic mice (Example 4); type: in vivo, CDF1 mice; settings: oral 1 mg/0.5 ml/h for 10 days, COLON 26 mice; control mice 42
IL-6 [5] = assay: IL-6 production of MΦ after NAC drinking and/or IL-2 administration (Example 8); type: in vivo, DBA/2 female mice; settings: stimulated with LPS and IFNγ; control mice 1,240 pg/ml
Procedure: The amount of IL-6 was determined using IL-6 dependent mouse hybridoma MH60 cells (J. Eur. Immunol., vol. 18, p. 951, 1988). One hundred microliters of the culture supernatant were added to 100 μl of the MH60 cell suspension adjusted to 1×10^5 cells/ml in a 10% FCS-containing RPMI medium, and the mixed solution was incubated at 37° C. for 2 days in a CO2 incubator. Subsequently, 10 μl of MTT (supplied by Sigma Co.) solution adjusted to a concentration of 5 mg/ml in the same medium were added thereto, and the reaction was conducted at 37° C. for 5 hours. […] Immediately after the dissolution, an absorbance of 570 nm was measured with an immunometer (supplied by Bio-Rad).
Two groups, namely, a group of 8-week-old DBA/2 female mice which were caused to freely drink city water as in Example 6, and a group of the same female mice which were caused to freely drink city water containing 1 mg/ml of NAC, were prepared. […] On day 14, the IL-12 production from MΦ was measured in the same manner as in Example 6.
Peritoneal cells were harvested from four groups of the mice, and stimulated with LPS and IFNγ. Then, the NO production, the IL-6 production and the IL-12 production were measured.

Structure (SMILES) | IL-12 production (IL-12; MΦ induced by intraperitoneal injection of the substance, stimulation with LPS and IFNγ) | IL-12 production of substance-induced MΦ, without DEM or IL-4 (IL-12; baseline values of the DEM and IL-4 experiments) | IL-6 in the culture supernatant of the macrophages (IL-6 [1]) | amount of IL-6 in macrophage culture supernatant (IL-6 [2]) | amount of PGE2 (PGE2) | IL-6 in the culture supernatant of the macrophages (IL-6 [3]) | average number of survival days [4] | amount of IL-6 in the macrophage culture supernatant (IL-6 [5])
CCOC(=O)CNC(=O)[C@H](CS)NC(=O)CC[C@H](N)C(=O)O [GSH-OEt, glutathione monoethyl ester] | 3,570 pg/ml | 490 pg/mL | prominently decreased | 642 pg/mL | 6.5 ng/mL | 460 pg/mL | 148 days | –
CC(=O)N[C@@H](CS)C(=O)O [NAC, N-acetylcysteine, reference compound] | – | – | – | – | – | – | – | 320 pg/mL
